Assay results from patent US10226044B2, “Agricultural and horticultural composition and method for cultivating plant” (AJINOMOTO CO., INC., priority 2014, dated 2019).

How the values were obtained:
[1] = system: LOX, JAR1, PI and MYC2 genes; test: Investigation of isoleucine concentration for sprinkling (I): gene expression; type: in vivo, cherry tomato (Suncherry Pure); conditions: 1 mM, 4 mM, 7 mM or 10 mM Ile, 20 mL per plant, sprinkled twice; leaves 3 hours after second sprinkling
Experimental: One week afterward, Ile was sprinkled again in the same manner, the leaves were collected 3 hours thereafter, and expression of the LOX, JAR1, PI and MYC2 genes were analyzed in the same manner as described in Example 5.

[2] = system: bok choy; conditions: substitution for 20% of nitrate nitrogen in nutrient solution, hydroponics; cited from earlier work
[3] = system: middle size fruit-bearing tomato (Tsukutsuku-shi); test: Ripening and harvestable bunch number of middle size fruit-bearing tomato (Tsukutsuku-shi); type: in vivo; conditions: 3 mM Ile + 0.2% Squash
Experimental: For the test, middle size fruit-bearing tomato plants in the second half of their growth (variety, Tsukutsuku-shi) that were cultivated in a greenhouse and bore fruit of the 12th tier were used. Neighboring 12 root clumps of the tomato plants were selected, 6 root clumps of them were used for control group receiving no treatment, and the other 6 root clumps were used for the Ile treatment group. […] The total volume of the solution sprinkled on the plants of 6 root clumps was 600 ml. After the treatment, the change in color of tomatoes was confirmed and harvested from each bunch on 11th, […], and 27th days. When substantially all the fruit colored (ripened), or many fruit were ready to overmature, that is, when the top of the fruit was still green, the fruit were harvested. The numbers of bunches harvested on the 11th day after the treatment were 3 for the no treatment group, and 7 for the Ile treatment group. The numbers of bunches harvested on the 18th day after the treatment were 4 for the no treatment group, and 3 for the Ile treatment group.

[4] = system: Apples (variety, Tsugaru); test: Anthocyanin content of pericarp of harvested apples immersed in Ile solutions; type: in vivo, apple; conditions: immersed 15 minutes in Ile solutions (1, 5, 10 mM) + 0.1% Applauch BI; 10th and 15th days after the treatment; compared to control group
Experimental: Apples (variety, Tsugaru) ready to mature (before coloring) were harvested, washed with tap water and then with distilled water, and immersed into water (control) and isoleucine (Ile) aqueous solutions of various concentrations for 15 minutes. To each treatment solution, 0.1% Applauch BI (Kao) was added. The treatment groups consisted of the following groups.
After the treatment, the apples were air-dried, and left standing in an incubator. The conditions consisted of constant temperature of 20° C., lighting condition of 120 μM/m^2/s obtained with 9 of 40 W fluorescent lamps, and daylength conditions of 16 hours of light period and 8 hours of dark period per day.
Pericarp color of the apples was evaluated by measuring anthocyanin content. Pericarp (0.5 g) collected from an apple of each treatment group was immersed in 5 mL of 2% formic acid at 4° C. for 24 hours to extract anthocyanin. Anthocyanin contained in the extract was analyzed by liquid chromatography. Since most part of anthocyanin of apple consists of cyanidin galactosides, anthocyanin concentration was calculated as cyanidin galactoside concentration.

[5] = system: grape (Cabernet Sauvignon); test: Anthocyanin content of pericarp of grape bunches sprinkled with isoleucine; type: in vivo; conditions: 10 mM isoleucine + 0.1% Applauch BI, 6.25 mL per bunch; Cabernet Sauvignon after start of veraison
Experimental: For the test, Cabernet Sauvignon plants that had been cultivated in a test cultivation field and had begun veraison were used. Eight bunches of fruit of the grape were collected from each of two root clumps, i.e., total 16 bunches of fruit were collected, and 6.25 mL per bunch of 0.1% Applauch BI (Kao, control), 1 g/L of abscisic acid (ABA)+0.1% Applauch BI (positive control), or 10 mM isoleucine+0.1% Applauch BI were sprinkled on them. The samples were collected 4 times, and they were collected from 4 bunches for each time. Anthocyanin contained in pericarp was extracted with a mixed solution of water and acetone (1:2) from pericarp, and anthocyanin content was measured in the same manner as described above.

[6] = system: LOX and Psy genes; test: Gene expression in pepper (Anaheim) sprinkled with Ile; type: in vivo; conditions: 10 mM Ile once a week, compared to Con.
Experimental: A 10 mM isoleucine aqueous solution (Ile) was sprinkled on pepper plants (variety, Anaheim), which also belong to the family Solanaceae, like tomato, and gene expression analysis was performed. The pepper plants were cultivated in a greenhouse in the same manner as described in Example 2. Ile was sprinkled once a week, and after the second sprinkling, leaves were collected from the pepper plants. RNA extraction, cDNA synthesis, and real-time PCR were performed in the same manner as described in Example 5 to analyze gene expression. Expression of the LOX gene was analyzed by using leaves collected 3 hours after the second sprinkling, and expression of the Psy gene was analyzed by using leaves collected 24 hours after the second sprinkling.

[7] = system: cherry tomato (Micro-Tom); test: Sprinkling of Ile on cherry tomato (Micro-Tom): blooming, appearance, ripening and number of fruit; type: in vivo
Experimental: Three seeds of cherry tomato (Micro-Tom) were shown in compost contained in a slit pot (upper diameter 10.5 cm×height 8.8 cm), and cultivated in a biotron at a temperature of 23° C. with a light period of 14 hours (6:00 to 20:00) and dark period of 10 hours (20:00 to 6:00). As the compost, a mixture of Kumiai Nippi Engei Baido No. 1 (Nihon Hiryo) and vermiculite at a ratio of 3:1 (volume ratio) was used. After 3 weeks, one root clump was left, and the others were thinned out. From one month after the sowing to harvest, a 300-fold diluted solution of Hyponex liquid fertilizer (N:P:K=6:10:5, Hyponex Japan) was additionally applied as soil fertilizer by irrigation at a frequency of once a week in a volume of 100 mL per one root clump (pot). After the plants of five root clumps uniformly grew, and flower buds began to appear, water (Control, or Con) or 10 mM L-isoleucine aqueous solution (Ile) was sprinkled on the whole plants once a week. The sprinkled volume was 5 mL per one root clump. Then, the blooming, appearance of fruit, ripening of the fruit, and number of fruit produced were investigated for each root clump.

[8] = 10 mM, once a week, compared to control

Q: Which “Expression of the LOX, JAR1, PI and MYC2 genes” value [1] does the source give for CC[C@H](C)[C@H](N)C(=O)O [Ile, L-isoleucine] here?
A: Its value is “increased substantially in an Ile concentration-dependent manner”.

Q: And the “growth (weight of root clump)” value [2]?
A: Its value is “not effective”.

Q: And the “nitrogen and phosphorus contents of terrestrial parts (shoots)” value [2]?
A: Its value is “increased”.

Q: And the “number of bunches harvested on the 11th day after the treatment” value ([3]; 10 labeled bunches, no treatment group: 3)?
A: The value was 7.

Q: And the “number of bunches harvested on the 27th day after the treatment” value ([3]; no treatment group: 3)?
A: Its value is 1.

Q: And the “number of bunches harvested on the 18th day after the treatment” value ([3]; no treatment group: 4)?
A: The value was 3.

Q: What about the “number of immature (unripened, green) fruits among the harvested fruit of 10 bunches” value ([3]; no treatment group: 15 of 85) of the same compound?
A: The value was 8.

Q: And the “total harvested fruit of 10 bunches” value ([3]; no treatment group: 85)?
A: The value was 86.

Q: And the “anthocyanin content of apple pericarp” value [4]?
A: The value was “higher”.

Q: And the “anthocyanin content of pericarp” value [5]?
A: The value was “increases”.

Q: What about the “Expression of the LOX gene” value ([6]; leaves 3 hours after the second sprinkling) of the same compound?
A: The value was “higher”.

Q: What about the “Expression of the Psy gene” value ([6]; leaves 24 hours after the second sprinkling) of the same compound?
A: Its value is “higher”.

Q: What about the “Blooming and appearance of the fruit” value ([7]; 10 mM L-isoleucine sprinkled on whole plants once a week, 5 mL per root clump, compared to water (Con)) of the same compound?
A: The value was “occurred sooner”.

Q: What about the “Ripening of the tomatoes (fruit turned orange or red)” value [7, 8] of the same compound?
A: Its value is “began earlier”.

Q: And the “number of colored tomatoes at the same time point” value [7, 8]?
A: The value was “larger”.

Q: And the “numbers of blooms and fruit” value ([7]; 10 mM, once a week, compared to water (Con))?
A: Its value is “larger”.

Q: What about the “number of harvested tomatoes, larger as compared to control” value ([7]; 10 mM, once a week, harvest on the 82nd day after sowing) of the same compound?
A: Its value is 20%.
